ChEMBL document CHEMBL1127341, “Synthesis and biological evaluation of 5-[[3,5-bis(1,1-dimethylethyl)- 4-hydroxyphenyl]methylene]oxazoles, -thiazoles, and -imidazoles: novel dual 5-lipoxygenase and cyclooxygenase inhibitors with antiinflammatory activity” (J Med Chem, 1994)
Activity calls are given as the source filed them. The rule behind the calls is not given here.

Experiments:
Rattus norvegicus [1] = test: Inhibition of rat carrageenan induced foot-pad edema at a dose of 10 mg/kg on peroral administration; conditions: po, read-out: Inhibition
Rattus norvegicus [2] = test: Inhibition of rat carrageenan induced foot-pad edema at a dose of 30 mg/kg on peroral administration; conditions: po, read-out: Inhibition
Cyclooxygenase = molecular target: T1, Cyclooxygenase (Rattus norvegicus, UniProt P35355+Q63921); conditions: rbl-1
T1 sequence (P35355 whole entry): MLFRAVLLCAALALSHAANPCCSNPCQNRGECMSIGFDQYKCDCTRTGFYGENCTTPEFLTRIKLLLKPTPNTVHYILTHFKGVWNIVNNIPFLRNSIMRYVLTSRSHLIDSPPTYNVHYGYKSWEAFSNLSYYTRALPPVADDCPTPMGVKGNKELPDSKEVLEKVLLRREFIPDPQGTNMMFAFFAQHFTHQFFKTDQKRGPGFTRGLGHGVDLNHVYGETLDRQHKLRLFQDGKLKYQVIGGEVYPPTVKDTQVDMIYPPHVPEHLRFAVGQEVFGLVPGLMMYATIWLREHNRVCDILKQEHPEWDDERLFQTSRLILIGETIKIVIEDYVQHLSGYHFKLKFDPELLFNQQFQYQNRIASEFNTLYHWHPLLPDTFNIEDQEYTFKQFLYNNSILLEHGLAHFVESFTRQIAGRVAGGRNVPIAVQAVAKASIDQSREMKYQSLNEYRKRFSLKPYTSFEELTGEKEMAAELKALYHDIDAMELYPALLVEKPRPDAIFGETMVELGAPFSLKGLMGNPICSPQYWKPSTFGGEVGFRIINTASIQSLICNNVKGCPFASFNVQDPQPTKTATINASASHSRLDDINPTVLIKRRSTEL
T1 sequence (Q63921 whole entry): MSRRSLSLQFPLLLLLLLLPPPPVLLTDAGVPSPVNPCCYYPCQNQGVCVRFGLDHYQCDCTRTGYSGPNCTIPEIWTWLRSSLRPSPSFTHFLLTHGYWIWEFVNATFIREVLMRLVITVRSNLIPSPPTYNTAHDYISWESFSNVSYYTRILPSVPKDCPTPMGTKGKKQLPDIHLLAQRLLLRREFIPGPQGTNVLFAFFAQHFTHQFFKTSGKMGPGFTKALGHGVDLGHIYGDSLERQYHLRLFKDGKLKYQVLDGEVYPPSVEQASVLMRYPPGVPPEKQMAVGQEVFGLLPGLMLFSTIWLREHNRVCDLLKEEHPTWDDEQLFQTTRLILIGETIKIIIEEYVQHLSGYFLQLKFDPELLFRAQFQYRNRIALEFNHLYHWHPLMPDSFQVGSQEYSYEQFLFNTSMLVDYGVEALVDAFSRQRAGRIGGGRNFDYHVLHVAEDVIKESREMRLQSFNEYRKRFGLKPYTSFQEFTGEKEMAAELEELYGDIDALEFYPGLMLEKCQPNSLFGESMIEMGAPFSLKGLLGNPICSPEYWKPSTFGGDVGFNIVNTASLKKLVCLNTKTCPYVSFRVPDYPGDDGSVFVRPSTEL
Description: Inhibition of prostaglandin G/H synthase in intact rat basophilic leukemia cells stimulated with the calcium ionophore A-23187

[3] = molecular target: T2, Polyunsaturated fatty acid 5-lipoxygenase (Rattus norvegicus, UniProt P12527)
T2 sequence (P12527 whole entry): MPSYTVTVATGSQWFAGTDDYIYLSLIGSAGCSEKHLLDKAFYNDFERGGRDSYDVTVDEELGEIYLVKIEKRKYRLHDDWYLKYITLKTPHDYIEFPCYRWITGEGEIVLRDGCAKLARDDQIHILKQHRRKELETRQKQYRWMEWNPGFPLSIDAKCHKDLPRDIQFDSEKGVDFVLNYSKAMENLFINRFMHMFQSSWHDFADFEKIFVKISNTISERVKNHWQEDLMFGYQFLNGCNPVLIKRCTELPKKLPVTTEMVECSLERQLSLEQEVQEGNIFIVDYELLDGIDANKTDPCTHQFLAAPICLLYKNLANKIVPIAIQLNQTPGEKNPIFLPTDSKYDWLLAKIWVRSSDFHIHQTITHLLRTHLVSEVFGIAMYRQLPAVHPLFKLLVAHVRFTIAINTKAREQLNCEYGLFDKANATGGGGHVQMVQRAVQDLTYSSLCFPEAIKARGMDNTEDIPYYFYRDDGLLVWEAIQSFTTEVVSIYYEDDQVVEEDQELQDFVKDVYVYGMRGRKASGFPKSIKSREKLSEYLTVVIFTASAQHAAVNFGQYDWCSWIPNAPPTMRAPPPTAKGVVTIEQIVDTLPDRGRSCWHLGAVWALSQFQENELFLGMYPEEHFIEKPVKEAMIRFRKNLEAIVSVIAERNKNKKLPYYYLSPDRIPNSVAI

Rattus norvegicus [4] = test: 40% inhibition of induced edema in the rat mycobacterium foot-pad edema test; format: functional
Rattus norvegicus [5] = test: Inhibition of rat carrageenan induced foot-pad edema at a dose of 30 mg/kg on peroral administration; N=Inactive; format: functional, organism-based; design: dose 30 mg/kg
Rattus norvegicus [6] = test: Inhibition of rat carrageenan induced foot-pad edema at a dose of 30 mg/kg on peroral administration; Inactive(N)= <25% inhibition at a dose of 30 mg/kg po; format: functional, organism-based
Rattus norvegicus [7] = test: 40% inhibition of induced edema in the rat mycobacterium foot-pad edema test; Inactive(N)= <30% inhibition at a dose of 10 mg/kg po; format: functional, organism-based; design: dose 10 mg/kg
Rattus norvegicus [8] = test: 40% inhibition of induced edema in the rat mycobacterium foot-pad edema test; N=Inactive; format: functional, organism-based
[9] = molecular target: T3, Polyunsaturated fatty acid 5-lipoxygenase (Rattus norvegicus) (UniProt P12527); test: Inhibitory activity at 10 uM against 5-lipoxygenase in intact rat basophilic leukemia cells stimulated with the calcium ionophore A-23187; format: cell-based; conditions: RBL-1
T3 sequence (whole entry): T2 sequence (P12527 whole entry)

Row | SMILES | inhibition in vivo at 10 mg/kg (Rattus norvegicus [1]) | inhibition in vivo at 30 mg/kg (Rattus norvegicus [2]) | IC50 (Cyclooxygenase) | IC50 [3] | ID40 (Rattus norvegicus [4]) | inhibition (Rattus norvegicus [5]) | other results
1 | CC(C)(C)c1cc(/C=C2\SC(=S)NC2=O)cc(C(C)(C)C)c1O | 32% | 36% | 0.012 µM | 0.38 µM |  |  | 
2 | CC(C)(C)c1cc(/C=C2\OC(N=C(N)N)=NC2=O)cc(C(C)(C)C)c1O.CS(=O)(=O)O | 33% | 48% | 0.34 µM | 1.2 µM | 5.7 mg/kg |  | 
3 | CC(C)(C)c1cc(/C=C2\SC(=O)NC2=O)cc(C(C)(C)C)c1O | 54% | 59% | 0.35 µM |  | 2 mg/kg |  | 
4 | C/C(=C1/SC(NC#N)=NC1=O)c1cc(C(C)(C)C)c(O)c(C(C)(C)C)c1 |  |  | 5.1 µM | 1.2 µM |  | inactive | 
5 | CN1C(=O)NC(=O)/C1=C/c1cc(C(C)(C)C)c(O)c(C(C)(C)C)c1 |  |  | 4.6 µM | 0.78 µM |  |  | inhibition (Rattus norvegicus [6]): inactive
6 | CN1C(NC#N)=NC(=O)/C1=C/c1cc(C(C)(C)C)c(O)c(C(C)(C)C)c1 |  |  | 3.5 µM | 0.7 µM |  | inactive | 
7 | C/C(=C1/SC(=S)NC1=O)c1cc(C(C)(C)C)c(O)c(C(C)(C)C)c1 |  |  | 4.5 µM | 2.3 µM |  |  | inhibition (Rattus norvegicus [6]): inactive
8 | CC(C)(C)c1cc(/C=C2\CC(=S)NC2=O)cc(C(C)(C)C)c1O | 19% | 39% | 2.4 µM | 1.7 µM |  |  | ID40 (Rattus norvegicus [7]): inactive
9 | CC(C)(C)c1cc(/C=C2\CCOC2=O)cc(C(C)(C)C)c1O | 17% | 28% |  |  | 3.7 mg/kg |  | 
10 | C/C(=C1/SC(N=C(N)N)=NC1=O)c1cc(C(C)(C)C)c(O)c(C(C)(C)C)c1 |  |  | 1.9 µM | 1.6 µM |  | inactive | 
11 | O=C1NC(=O)/C(=C/c2cc(-c3ccccc3)c(O)c(-c3ccccc3)c2)S1 | 11% | 41% | 9.6 µM | 0.16 µM |  |  | ID40 (Rattus norvegicus [7]): inactive
12 | CC(C)(C)c1cc(/C=C2\OC(=O)NC2=O)cc(C(C)(C)C)c1O | 35% | 51% | 0.65 µM | 2.8 µM | 3.7 mg/kg |  | 
13 | CN(O)C1=NC(=O)/C(=C/c2cc(C(C)(C)C)c(O)c(C(C)(C)C)c2)S1.Cl |  |  | 0.33 µM | 1.7 µM | 6.2 mg/kg |  | 
14 | CC(C)(C)c1cc(/C=C2\SC(NC#N)=NC2=O)cc(C(C)(C)C)c1O | 29% | 49% | 0.16 µM | 0.63 µM |  |  | ID40 (Rattus norvegicus [8]): inactive
15 | CSC1=NC(=O)/C(=C/c2cc(C(C)(C)C)c(O)c(C(C)(C)C)c2)S1 | 36% | 47% | 0.6 µM | 0.65 µM |  |  | ID40 (Rattus norvegicus [8]): inactive
16 | CN1C(=S)NC(=O)/C1=C/c1cc(C(C)(C)C)c(O)c(C(C)(C)C)c1 |  |  | 0.79 µM | 0.17 µM |  | inactive | 
17 | CN(O)C1=NC(=O)/C(=C/c2cc(C(C)(C)C)c(O)c(C(C)(C)C)c2)S1 [listing 1 of 2 here] |  |  | 10 µM | 7.3 µM |  |  | 
18 | CC(C)(C)c1cc(/C=C2\OC(=S)NC2=O)cc(C(C)(C)C)c1O | 32% | 40% | 1.7 µM | 0.84 µM | 12.4 mg/kg |  | 
19 | CN(O)C1=NC(=O)/C(=C/c2cc(C(C)(C)C)c(O)c(C(C)(C)C)c2)S1 [listing 2 of 2 here] |  |  |  |  |  | inactive | 
20 | CC(C)(C)c1cc(/C=C2\SC(NCCCC(=O)O)=NC2=O)cc(C(C)(C)C)c1O |  |  |  |  |  |  | inhibition [9]: 53%
21 | CC(C)(C)c1cc(/C=C2\SC(=O)NC2=O)cc(C(C)(C)C)c1 |  |  | 4.6 µM | 3.3 µM |  | inactive | 
22 | CC(C)(C)c1cc(/C=C2\SC(=N)NC2=O)cc(C(C)(C)C)c1O.CS(=O)(=O)O [DARBUFELONE MESYLATE] | 52% | 61% | 0.39 µM | 0.77 µM | 0.6 mg/kg |  | 
23 | CC(C)(C)c1cc(/C=C2\OC(NC#N)=NC2=O)cc(C(C)(C)C)c1O |  |  | 1.1 µM | 2.6 µM |  | inactive | 
24 | CON1CC/C(=C\c2cc(C(C)(C)C)c(O)c(C(C)(C)C)c2)C1=O [E-5110] |  |  |  |  | 1.9 mg/kg |  | 
25 | CN(C)CCNC1=NC(=O)/C(=C/c2cc(C(C)(C)C)c(O)c(C(C)(C)C)c2)S1 |  |  |  |  |  |  | inhibition [9]: 79%
26 | CC(C)(C)c1cc(/C=C2\SC(N=C(N)N)=NC2=O)cc(C(C)(C)C)c1O | 34% | 40% | 0.083 µM | 0.91 µM | 2.2 mg/kg |  | 
27 | CN1C(NC(=N)N)=NC(=O)/C1=C/c1cc(C(C)(C)C)c(O)c(C(C)(C)C)c1 |  |  | 2.1 µM | 1.3 µM |  | inactive | 
28 | CC(C)(C)c1cc(/C=C2\SC(NO)=NC2=O)cc(C(C)(C)C)c1O |  |  | 0.8 µM | 3.7 µM |  | inactive | 
29 | CC(C)c1cc(/C=C2\SC(=O)NC2=O)cc(C(C)C)c1O |  |  | 0.82 µM | 0.22 µM |  |  | ID40 (Rattus norvegicus [8]): inactive
